Data reported in patent US20230056205A1, “SUBSTITUTED 4,6-DIHYDROSPIRO[[1,2,3]TRIAZOLO[4,5-B]PYRIDINE-7,3'-INDOLINE]-2',5(3H)-DIONE ANALOGUES” (The Board of Regents of The University of Texas System, priority 2019, published 2023).
Like-named read-outs stand apart in the source and are kept apart here.

Columns and labels:
DENV-3 replicon = experiment: Luciferase reporter replicon-based screening, DENV-3; format: cell-based, DENV-3 (strain D3MY05-34640)
Protocol: (§1) Luciferase Reporter Replicon-Based Screening. Huh7 cells containing a luciferase reporter replicon of DENV-1 (strain WestPac), DENV-2 (New Guinea C strain, NGC), DENV-3 (strain D3MY05-34640) and DENV-4 (strain D4MY01-22713) were used in this study. The replicon cells containing the Renilla luciferase and neomycin-resistance genes were generated using a similar strategy as described previously.^55 Briefly, Huh7 DENV-1 to -4 replicon cells were seeded at a density of 10k per well in a 96-well microplate. After incubation at 37° C. with 5% CO2 overnight, the cells were treated with 2-fold serial dilutions of compounds. Experiments were performed in duplicates. After 48 h of incubation, luciferase activities were measured using the EnduRen live-cell substrate (Promega) by following the manufacturer’s instructions. The dose-dependent curve was plotted and EC50 values were calculated using four parameter logistic regression in GraphPad software Prism 8.0.

DENV-4 replicon = experiment: Luciferase reporter replicon-based screening, DENV-4; format: cell-based, DENV-4 (strain D4MY01-22713); conditions: Dengue virus, DENV4, Huh-7, 48 h, read-out: EC50 DENV-4
Protocol: as §1

[1] = Cytotoxicity assay (CellTiter-Glo); format: cell-based; conditions: human, Huh7 cells stably expressing DENV-2 replicon
Protocol: Cytotoxicity Assay. Huh7 cells or Huh7 replicon cells were seeded in a 96-well plate. After incubation at 37° C. with 5% CO2 overnight, the cells were treated with 2-fold serial dilutions of compounds. Experiments were performed in duplicates. After 48 h of incubation, cell viability was measured by adding the CellTiter-Glo reagent (Promega) to each well. The cell viability in 0.45% DMSO-treatment groups was treated at 100%. The cell viability in compound-treated wells was normalized to that of DMSO-treated wells. CC50 values were calculated using four parameter logistic regression in GraphPad software Prism 8.0.

DENV-1 replicon = experiment: Luciferase reporter replicon-based screening, DENV-1; format: cell-based, DENV-1 (strain WestPac); conditions: Dengue virus, DENV1, Huh-7, 48 h, read-out: EC50 DENV-1
Protocol: as §1

DENV-2 replicon = experiment: Luciferase reporter replicon-based screening, DENV-2; format: cell-based, DENV-2 (New Guinea C strain, NGC)
Protocol: as §1

[2] = Dengue virus, DENV3, Huh-7, 48 h, read-out: EC50 DENV-3, Huh7 cells stably expressing DENV-3 replicon, 48 h
[3] = Dengue virus, DENV2, Huh-7, 48 h, read-out: EC50 DENV-2, Huh7 cells stably expressing DENV-2 replicon, 48 h
[4] = read-out: EC50 DENV-3, Huh7 cells stably expressing DENV-3 replicon, 48 h
[5] = read-out: EC50 DENV-2, Huh7 cells stably expressing DENV-2 replicon, 48 h

SMILES | EC50 (DENV-3 replicon; [2]) [nM] | EC50 (DENV-4 replicon) [nM] | CC50 at 48 h [1] [nM] | EC50 (DENV-1 replicon) [nM] | EC50 (DENV-2 replicon; [3]) [nM] | EC50 (DENV-3 replicon; [4]) [nM] | EC50 (DENV-2 replicon; [5]) [nM]
C[C@@H](c1ccc(Cl)cc1)n1nnc2c1NC(=O)C[C@]21C(=O)N(Cc2ccncc2)c2ccc(Cl)cc21 [Compound 35, (R)-5'-Chloro-3-((S)-1-(4-chlorophenyl)ethyl)-1'-(pyridin-4-ylmethyl)-4,6-dihydrospiro[[1,2,3]triazolo[4,5-b]pyridine-7,3'-indoline]-2',5(3H)-dione] | 25 | > 5000 | > 10000 | > 5000 | 72 |  | 
C[C@@H](c1ccc(Cl)cc1)n1nnc2c1NC(=O)C[C@]21C(=O)N(Cc2ccc(Cl)nc2)c2ccc(Cl)cc21 [Compound 36, (R)-5'-Chloro-3-((S)-1-(4-chlorophenyl)ethyl)-1'-((6-chloropyridin-3-yl)methyl)-4,6-dihydrospiro[[1,2,3]triazolo[4,5-b]pyridine-7,3ʹ-indoline]-2',5(3H)-dione] | 6 | > 5000 | > 10000 | > 5000 | 78 |  | 
Cc1ccc(CN2C(=O)[C@]3(CC(=O)Nc4c3nnn4[C@@H](C)c3ccc(Cl)cc3)c3cc(Cl)ccc32)cn1 [Compound 37, (R)-5'-Chloro-3-((S)-1-(4-chlorophenyl)ethyl)-1'-((6-methylpyridin-3-yl)methyl)-4,6-dihydrospiro[[1,2,3]triazolo[4,5-b]pyridine-7,3'-indoline]-2',5(3H)-dione] | 11 | > 5000 | > 10000 | > 5000 | 150 |  | 
COCCCN1C(=O)[C@]2(CC(=O)Nc3c2nnn3[C@@H](C)c2ccc(Cl)cc2)c2cc(Cl)ccc21 [Compound 39, (R)-5'-Chloro-3-((S)-1-(4-chlorophenyl)ethyl)-1'-(3-methoxypropyl)-4,6-dihydrospiro[[1,2,3]triazolo[4,5-b]pyridine-7,3'-indoline]-2',5(3H)-dione] | 9 to 76 | > 5000 | > 10000 | > 5000 | 37 to 290 | 9 | 40
COCCCN1C(=O)C[C@]2(C(=O)Nc3ccc(Cl)cc32)c2nnn([C@@H](C)c3ccc(Cl)cc3)c21 [Compound 40, (R)-5'-Chloro-3-((S)-1-(4-chlorophenyl)ethyl)-4-(3-methoxypropyl)-4,6-dihydrospiro[[1,2,3]triazolo[4,5-b]pyridine-7,3-indoline]-2',5(3H)-dione] | 910 | > 10000 | > 10000 | > 10000 | 8700 |  | 
C[C@@H](c1ccc(Cl)cc1)n1nnc2c1NC(=O)C[C@]21C(=O)N(CCO)c2ccc(Cl)cc21 [Compound 42, (R)-5'-Chloro-3-((S)-1-(4-chlorophenyl)ethyl)-1'-(2-hydroxyethyl)-4,6-dihydrospiro[[1,2,3]triazolo[4,5-b]pyridine-7,3'-indoline]-2',5(3H)-dione] | 9 to 76 | > 5000 | > 10000 | > 5000 | 37 to 290 | 10 | 37
COC(=O)CN1C(=O)C[C@]2(C(=O)Nc3ccc(Cl)cc32)c2nnn([C@@H](C)c3ccc(Cl)cc3)c21 [Compound 44, Methyl 2-((R)-5'-chloro-3-((S)-1-(4-chlorophenyl)ethyl)-2',5-dioxo-5,6-dihydrospiro[[1,2,3]triazolo[4,5-b]pyridine-7,3'-indolin]-4(3H)-yl)acetate] | 2700 | > 10000 | > 10000 | > 10000 | > 10000 |  | 
C[C@@H](c1ccc(Cl)cc1)n1nnc2c1NC(=O)C[C@]21C(=O)N(CCF)c2ccc(Cl)cc21 [Compound 46, (R)-5'-Chloro-3-((S)-1-(4-chlorophenyl)ethyl)-1'-(2-fluoroethyl)-4,6-dihydrospiro[[1,2,3]triazolo[4,5-b]pyridine-7,3'-indoline]-2',5(3H)-dione] | 9 to 76 | > 5000 | > 10000 | > 5000 | 37 to 290 | 9 | 38
C[C@@H](c1ccc(Cl)cc1)n1nnc2c1NC(=O)C[C@]21C(=O)N(CCCBr)c2ccc(Cl)cc21 [Compound 47, (R)-1'-(3-Bromopropyl)-5'-chloro-3-((S)-1-(4-chlorophenyl)ethyl)-4,6-dihydrospiro[[1,2,3]triazolo[4,5-b]pyridine-7,3'-indoline]-2',5(3H)-dione] | 76 | 3200 | > 10000 | 2400 | 250 |  | 
C[C@@H](c1ccc(Cl)cc1)n1nnc2c1NC(=O)C[C@]21C(=O)N(CCN2CCOCC2)c2ccc(Cl)cc21 [Compound 55, (R)-5'-chloro-3-((S)-1-(4-chlorophenyl)ethyl)-1'-(2-morpholinoethyl)-4,6-dihydrospiro[[1,2,3]triazolo[4,5-b]pyridine-7,3'-indoline]-2',5(3H)-dione] | 17 | > 5000 | > 10000 | > 5000 | 75 |  | 
C[C@@H](c1ccc(Cl)cc1)n1nnc2c1NC(=O)C[C@]21C(=O)N(CCN2CCCCC2)c2ccc(Cl)cc21 [Compound 56, (R)-5'-Chloro-3-((S)-1-(4-chlorophenyl)ethyl)-1'-(2-(piperidin-1-yl)ethyl)-4,6-dihydrospiro[[1,2,3]triazolo[4,5-b]pyridine-7,3'-indoline]-2',5(3H)-dione] | 5 | > 5000 | > 10000 | > 5000 | 74 |  | 
C[C@@H](c1ccc(Cl)cc1)n1nnc2c1NC(=O)C[C@]21C(=O)N(CCN(C)C)c2ccc(Cl)cc21 [Compound 57, (R)-5'-Chloro-3-((S)-1-(4-chlorophenyl)ethyl)-1'-(2-(dimethylamino)ethyl)-4,6-dihydrospiro[[1,2,3]triazolo[4,5-b]pyridine-7,3'-indoline]-2',5(3H)-dione] | 2 | > 5000 | > 10000 | > 5000 | 25 |  | 
C[C@@H](c1ccc(Cl)cc1)n1nnc2c1NC(=O)C[C@]21C(=O)N(CCN2CCCC2)c2ccc(Cl)cc21 [Compound 58, (R)-5'-Chloro-3-((S)-1-(4-chlorophenyl)ethyl)-1'-(2-(pyrrolidin-1-yl)ethyl)-4,6-dihydrospiro[[1,2,3]triazolo[4,5-b]pyridine-7,3'-indoline]-2',5(3H)-dione] | 6 | > 5000 | > 10000 | > 5000 | 38 |  | 
C[C@@H](c1ccc(Cl)cc1)n1nnc2c1NC(=O)C[C@]21C(=O)N(CCN2CCN(C)CC2)c2ccc(Cl)cc21 [Compound 59, (R)-5'-Chloro-3-((S)-1-(4-chlorophenyl)ethyl)-1'-(2-(4-methylpiperazin-1-yl)ethyl)-4,6-dihydrospiro[[1,2,3]triazolo[4,5-b]pyridine-7,3'-indoline]-2',5(3H)-dione] | 30 | > 5000 | > 10000 | > 5000 | 300 |  | 
C[C@@H](c1ccc(Cl)cc1)n1nnc2c1NC(=O)C[C@]21C(=O)N(CCN(C)CCS(C)(=O)=O)c2ccc(Cl)cc21 [Compound 60, (R)-5'-Chloro-3-((S)-1-(4-chlorophenyl)ethyl)-1'-(2-(methyl(2-(methylsulfonyl)ethyl)amino)ethyl)-4,6-dihydrospiro[[1,2,3]triazolo[4,5-b]pyridine-7,3'-indoline]-2',5(3H)-dione] | 18 | > 5000 | > 10000 | > 5000 | 77 |  | 
